In assay [1] the test system is Human dermal fibroblasts. Nature of the assay: Cell activity (AlamarBlue) of cells irradiated with UV through a solution of the UV wavelength conversion substance. In kind it is cell-based. As to conditions: UV 0 to 100 mJ/cm^2, FIG. 3. The procedure:
The UV wavelength conversion substances (3) and (4) were dispersed in alcohol to prepare 5% and 10% dispersions.
(§1) 1. Human dermal fibroblasts and human skin keratinocytes purchased from Kurabo Industries Ltd. were used. A cell suspension (1 mL) stored in liquid nitrogen was thawed in a water bath (37° C.) to an extent that small ice pellets remained, and then diluted with 9 mL of warm medium. 2. The diluted suspension was mixed gently and then transferred to a T75 flask and incubated overnight at 37° C. 3. The next day, the medium was replaced with 10 mL of fresh medium. 4. The medium was replaced periodically (once every 2 days for fibroblasts and once every 2 to 3 days for keratinocytes) and cell proliferation was continued. Meanwhile, the cells were observed using a microscope, and it was confirmed that the cells grew in the correct form. 5. After the cells reached about 80% confluence, the cells were passaged. The cells were passaged by washing the cells once with 10 mL of warm PBS, adding 5 mL of warm trypsin to a T75 flask, covering the bottom of the flask with a trypsin solution, followed by aspirating at room temperature for 1 minute. 6. The flask was allowed to stand in an oven at 37° C. for (maximum) 2 minutes for fibroblasts and (maximum) 7 minutes for keratinocytes. The cells were observed using a microscope and confirmed to be small and oval. 7. […]

Assay [2] concerns Human dermal fibroblasts. Kind of assay: Restoration of cell activity decreased by UV irradiation (AlamarBlue). Type of assay: cell-based. As to conditions: FIG. 5. The protocol: as §1, with “7. Thereafter, the side of the T75 flask was lightly tapped to release the cells.” for “7.”
Background: The colour change of resazurin is a common sign of viable cells or microbes.

For C-phycocyanin, the “cell activity at UV irradiation (relative fluorescence intensity)” value is “the decrease in cell activity was suppressed” in the assay on Human dermal fibroblasts [1] (0.4% C-phycocyanin solution) and “the cell activity was even increased” in the assay on Human dermal fibroblasts [1] (2% C-phycocyanin solution, compared to no UV irradiation). For the same substance, the “cell activity recovery effect, comparison of concentrations” value with Human dermal fibroblasts [2] (0.4% versus 2% solution) was “equivalent at concentrations of 0.4% and 2%”. In addition, the “cell activity of cells having activity temporarily reduced (relative fluorescence intensity)” value in the assay with Human dermal fibroblasts [2] (pre-irradiation 400 mJ/cm^2 without substance, then UV 0 to 200 mJ/cm^2 through 0.4% or 2% solution) is reported as “cell activity was recovered”.

The record behind these values is patent US20220175637A1, “COMPOSITION COTAINING ULTRAVIOLET WAVELENGTH-CONVERTING SUBSTANCE AND HYDROPHOBIZED SILICA AND/OR HYDROPHOBIZED STARCH” (Shiseido Company, Ltd., priority 2019, published 2022).
